Source: PubChem BioAssay (NCI)
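The concentration for 50% growth inhibition is given as GI50. TGI: concentration producing complete growth inhibition.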

Legend:
Experiment in all cases: DTP human tumour cell line panel, 384-well format
LOX IMVI melanoma = system: LOX IMVI melanoma
786-0 renal = system: 786-0 renal
SK-MEL-5 melanoma = system: SK-MEL-5 melanoma
M14 melanoma = system: M14 melanoma
T-47D breast = system: T-47D breast
SF-295 CNS = system: SF-295 CNS
NCI-H23 lung = system: NCI-H23 lung
NCI-H522 lung = system: NCI-H522 lung
HCC-2998 colon = system: HCC-2998 colon
UACC-257 melanoma = system: UACC-257 melanoma
UACC-62 melanoma = system: UACC-62 melanoma
ACHN renal = system: ACHN renal
MDA-MB-468 breast = system: MDA-MB-468 breast

For C[C@@H]1Cc2c(ccc3[nH]ncc23)[C@@H](c2ccc(NC3CN(CCCF)C3)cn2)N1CC(F)(F)F, the GI50 (LOX IMVI melanoma) was 15.8 µM, the TGI (LOX IMVI melanoma) was 29.3 µM and the GI50 (786-0 renal) was 15.2 µM. It also gave a TGI (786-0 renal) of 28.5 µM, a GI50 (SK-MEL-5 melanoma) of 14.8 µM and a TGI (SK-MEL-5 melanoma) of 28 µM. For the same compound, the GI50 (M14 melanoma) was 16.3 µM, the TGI (M14 melanoma) was 29.9 µM and the GI50 (T-47D breast) was 10.9 µM. The TGI (T-47D breast) was 22.9 µM, the GI50 (SF-295 CNS) was 17.7 µM and the TGI (SF-295 CNS) was 31.6 µM. It also gave a GI50 (NCI-H23 lung) of 11.7 µM, a TGI (NCI-H23 lung) of 24.3 µM and a GI50 (NCI-H522 lung) of 11.9 µM. It also gave a TGI (NCI-H522 lung) of 24.3 µM, a GI50 (HCC-2998 colon) of 13.8 µM and a TGI (HCC-2998 colon) of 26.8 µM. For the same compound, the GI50 (UACC-257 melanoma) was 13.9 µM, the TGI (UACC-257 melanoma) was 26.9 µM and the GI50 (UACC-62 melanoma) was 13.8 µM. The TGI (UACC-62 melanoma) was 26.8 µM, the GI50 (ACHN renal) was 17.5 µM and the TGI (ACHN renal) was 31.5 µM. The GI50 (MDA-MB-468 breast) was 7.75 µM and the TGI (MDA-MB-468 breast) was 20.1 µM.
